Measurements from patent US11478474B2, “2-(3′-(hydroxymethyl)-1-methyl-5-((5-(2-methyl-4-(oxetan-3-yl)piperazin-1-yl)pyridin-2-yl)amino)-6-oxo-1,6-dihydro-[3,4′-bipyridin]-2′-yl)-7,7-dimethyl-7,8-dihydro-2H-cyclopenta[4,5]pyrrolo[1,2-a]pyrazin-1(6H)-one as a BTK inhibitor” (HUTCHISON MEDIPHARMA LIMITED, priority 2020, dated 2022).
pIC50: −log10 of the molar value.

Tests used:
[1] = target: BTK recombinant protein (Homo sapiens (Human), UniProt Q06187); experiment: Determination of biochemical BTK (Z'-LYTE kinase assay)
BTK recombinant protein, sequence (Q06187 whole entry): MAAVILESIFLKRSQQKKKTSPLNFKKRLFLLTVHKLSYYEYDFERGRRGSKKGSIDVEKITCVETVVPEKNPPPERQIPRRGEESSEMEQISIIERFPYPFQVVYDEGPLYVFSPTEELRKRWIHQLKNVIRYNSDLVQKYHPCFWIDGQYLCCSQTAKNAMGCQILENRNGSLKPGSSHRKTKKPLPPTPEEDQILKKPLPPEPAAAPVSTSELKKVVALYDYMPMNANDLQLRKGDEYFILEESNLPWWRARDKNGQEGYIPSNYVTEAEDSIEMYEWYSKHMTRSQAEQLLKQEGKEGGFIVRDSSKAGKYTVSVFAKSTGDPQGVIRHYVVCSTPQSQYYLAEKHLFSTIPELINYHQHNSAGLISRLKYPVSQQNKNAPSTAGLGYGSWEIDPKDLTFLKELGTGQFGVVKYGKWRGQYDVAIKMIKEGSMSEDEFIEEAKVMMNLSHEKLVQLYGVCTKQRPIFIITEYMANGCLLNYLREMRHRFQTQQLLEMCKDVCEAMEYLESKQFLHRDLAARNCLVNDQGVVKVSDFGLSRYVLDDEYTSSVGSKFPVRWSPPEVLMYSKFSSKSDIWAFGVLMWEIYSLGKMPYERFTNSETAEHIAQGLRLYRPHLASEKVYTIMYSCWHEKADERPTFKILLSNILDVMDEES
Description: Example 2 Determination of Biochemical BTK
(§1) 1. Reagents and Materials
BTK recombinant protein: Invitrogen, Cat #PV3363;
Z′-LYTE® kinase test kit-tyrosine 1 peptide: Invitrogen, Cat #PV3190;
Z′-LYTE® biochemical assay employs a fluorescence resonance energy transfer (FRET)—based, coupled-enzyme format and is based on the differential sensitivity of phosphorylated and non-phosphorylated peptides to proteolytic cleavage. Both ends of the short peptide substrate are labeled with two fluorescent groups to form a FRET paired combination. In the primary reaction (the Kinase Reaction), the kinase transfers the γ-phosphate of ATP to a single […] residue on the short peptide substrate. In the secondary reaction (the development reaction), the non-phosphorylated short peptides were recognized and cleaved by a site-specific protease (the development reagent). Phosphorylated short peptides can resist such cleavage. Cleavage of short peptides can disrupt the donor (such as coumarin) and receptor fluorophores (fluorescein) on the short peptides, while the phosphorylated short peptides can maintain FRET. The calculation method of the ratio is as follows, and the ratio of the respective emission signals generated by the donor fluorophores emitted (after excitation at 400 nm) to the receptors is calculated. Emission signal ratio=emitted light by coumarin (445 nm)/emitted light by fluorescein (520 nm). If the FRET short peptide is phosphorylated (such as no kinase inhibitor), the emitted light ratio will remain in a lower level. If the FRET short peptide is non-phosphorylated (such as kinase inhibitor), the emitted light ratio will be in a higher level. In this way, the inhibitory effects of different compound inhibitors on BTK kinase activity would be distinguished.
The experiment were carried out according to the instructions of the Z′-LYTE® kinase test kit-tyrosine 1 peptide. Reagent preparation: 1.33× kinase buffer: 5× kinase buffer was diluted with water to 1.33× kinase buffer; an enzyme solution: the kinase was dissolved in 1.33× kinase buffer with the final working concentration being 3.32 nM; a short peptide solution: a short peptide stock solution (1 mM dissolved in DMSO) was dissolved in 1.33× kinase buffer with the final working concentration being 2 μM; Z′-LYTE Tyr01 phosphorylated short peptide solution, 0.6 μl of stock solution (1 mM dissolved in DMSO) was dissolved in 149.4 μl of 1.33× kinase buffer; an ATP solution: an ATP stock solution (10 mM aqueous solution) was dissolved in 1.33× kinase buffer with the final working concentration being 32 μM; a color-developing solution: color-developing solution B was dissolved in color-developing buffer with the final working concentration being 1× color-developing solution; 4× compound preparation: the compound was diluted in 3-fold gradient concentration to finally obtain 4% DMSO aqueous solution containing different concentrations of the compound, with the final working concentration being 3000, 1000, 333.33, 111.11, 37.04, 12.35, 4.12, 1.37 nM, 8 concentration points in total.
Specific steps of the experiment: In the experiment, there were three control groups, each with 8 replicate wells, which were C1 100% inhibition group (no ATP), C2 0% inhibition group (with ATP), and C3 100% phosphorylation group, respectively. 2.5 μl of serially diluted compound was added to each well of a 384-well plate, with double replicate wells, and 4% DMSO solution was added to wells C1, C2, and C3. After that, except for wells C3, 2.5 μl of BTK enzyme solution was added to each remaining well, which was left to stand at 4° C. for 30 minutes. After that, except for wells C3, 2.5 μl of short peptide solution was added to each well, and 5 μl of phosphorylated short peptide solution was added to each of wells C3. 2.5 μl of 1.33× kinase buffer was added to each of wells C1 and C3, and 2.5 μl of ATP solution was added to each of the remaining wells. […]

[2] = target: phosphorylated BTK in Ramos cells (Homo sapiens (Human), UniProt Q06187); experiment: Determination of phosphorylated BTK in Ramos cells (BTK phospho-Y223 HTRF); type: cell-based; details: anti-human IgM + hydrogen peroxide stimulation
phosphorylated BTK in Ramos cells, sequence (Q06187 whole entry): as above
Protocol: Determination of Phosphorylated BTK in Ramos Cells
as §1
Ramos cells: Ramos cells were purchased from American Standard Biological Collection Center ATCC Cell Bank, PRMI 1640 medium containing L-glutamine, 1.5 g/L of sodium bicarbonate, 2.383 g/L of HEPES solution, 0.11 g/L of sodium pyruvate and 4.5 g/L of glucose was used, added 10% fetal bovine serum FBS, and placed in a 5% CO2, 37° C. cell incubator for normal culture;
Phosphorylated BTK HTRF detection kit (BTK phospho-Y223 HTRF kit): Cisbio, Cat #63ADK017PEH;
Ramos cells were starved in PRMI 1640 medium with 1% FBS for 2 hours. The starved Ramos cells were diluted with Hank's balanced salt solution to 5.0×10^6 cells/ml, seeded in a 96-well plate with 20 μL/well (1.0×10^5 cells/well), and cultured in a 5% CO2, 37° C. cell incubator. After culturing for 1 hour, the test compound was diluted with Hank's balanced salt solution in 4-fold gradient to the corresponding concentrations, and then 5 μL/well of the diluted test compound with different concentrations (the final concentrations of the test compound were 3.0, 0.75, 0.188, 0.047, 0.012, 0.0029, 0.0007 and 0.00018 μM, and the final concentration of DMSO was 0.3%, double replicate wells) or 5 μL/well of control solution (1.5% DMSO, 8 replicate wells) were added to 20 μL/well of cell culture system, which incubated together for another hour, then 5 μL/well of a mixed solution of human immunoglobulin M (final concentration was 10 μg/mL) and hydrogen peroxide (final concentration was 3.3 mM) diluted with Hank's balanced salt solution was added to the treating wells for the test compound and the control treating wells for anti-human immunoglobulin M, and 5 μL/well of Hank's balanced salt solution was added to negative control treating wells. The plate was incubated in a 5% CO2, 37° C. cell incubator for 10 minutes.
10 μL/well of cell lysis buffer was added to each well of a 96-well plate, which was mixed well and lysed at room temperature for 30 minutes. 16 μL/well of lysis buffer was pipetted to a new 384 well plate, and then added 4 μL/well of phosphorylated BTK antibody, centrifuged (1000 rpm) for 1 minute, then shaken for 1 minute, further centrifuged (1000 rpm) for 1 minute, and finally placed in a constant temperature incubator overnight. Detection was performed on the next day.
The 384 well plate incubated overnight in the constant temperature incubator was taken out to detect the luminescence signal using the Envision microwell plate reader at the […]. The reading value at 665 nm/615 nm of each well multiplied by 104 was used as the signal value of each well.
The average signal value of the wells supplemented with the mixed solution of human immunoglobulin M (final concentration was 10 μg/mL) and hydrogen peroxide (final concentration was 3.3 mM) without the test compound was regarded as the high value, and the average signal value of the wells without immunoglobulin M stimulation and without the test compound was regarded as the low value. According to the signal value in each well, the inhibition ratio (%) of each concentration of compounds was calculated, and the 205 model in XL-Fit 5.3 software (ID Business Solutions Limited) was used to obtain an IC50 value.
The inhibition ratio is calculated as follows: inhibition ratio (%)=100%−{(treating well for the test compound−negative control treating well)/(control treating well for anti-human immunoglobulin M−negative control treating well)}×100%, wherein,
Treating well for the test compound: represents the signal value of Ramos cells treated with anti-human immunoglobulin M, hydrogen peroxide and the test compound.
Control treating well for anti-human immunoglobulin M: represents the signal value of Ramos cells treated with anti-human immunoglobulin M, hydrogen peroxide but without the test compound. […]

Row | pIC50 [1] | pIC50 [2] | Compound
1 | 8.10 | 7.47 | C[C@H]1CN(C2COC2)CCN1c1ccc(Nc2cc(-c3ccnc(-n4ccn5c6c(cc5c4=O)CC(C)(C)C6O)c3CO)cn(C)c2=O)nc1 (mixture of isomers) [Compound 182]
2 | 7.85 | 7.55 | CC1CCc2c(cc3c(=O)n(-c4nccc(-c5cc(Nc6ccc(N7CCN(C8COC8)C[C@@H]7C)cn6)c(=O)n(C)c5)c4CO)ccn23)C1 (mixture of isomers) [Compound 187]
3 | 8.22 | 8.70 | [2H]C(O)c1c(-c2cc(Nc3ccc(N4CCN(C5([2H])COC5)C[C@@H]4C)cn3)c(=O)n(C)c2)ccnc1-n1ccn2c3c(cc2c1=O)CC(C)(C)C3 (mixture of isomers) [Compound 101]
4 | 8.70 | 8.70 | COCCN1CCn2nc(Nc3cc(-c4ccnc(-n5ncn6c7c(cc6c5=O)CC(C)(C)C7)c4CO)cn(C)c3=O)cc2C1C (racemic) [Compound 110, (RS)-2-(3′-(hydroxymethyl)-5-((5-(2-methoxyethyl)-4-methyl-4,5,6,7-tetrahydropyrazolo[1,5-a]pyrazin-2-yl)amido)-1-methyl-6-oxo-1,6-dihydro-[3,4′-bispyridin]-2′-yl)-7,7-dimethyl-7,8-dihydro-2H-cyclopenta[4,5]pyrrolo[1,2-d][1,2,4]triazin-1(6H)-one]
5 | 7.64 | 7.68 | COCCN1CCn2nc(Nc3cc(-c4ccnc(-n5nc(C)n6c7c(cc6c5=O)CC(C)(C)C7)c4CO)cn(C)c3=O)cc2C1C (racemic) [Compound 121]
6 | 7.72 | 7.15 | CC(O)CN(CCNc1ccc(Nc2cc(-c3ccnc(-n4ccn5c6c(cc5c4=O)CC(C)(C)C6)c3CO)cn(C)c2=O)nc1)C1COC1 (racemic) [Compound 179]
7 | 8.40 | 7.96 | COCC(C)N1CCN(c2ccc(Nc3cc(-c4ccnc(-n5ncn6c7c(cc6c5=O)CC(C)(C)C7)c4CO)cn(C)c3=O)nc2)[C@@H](C)C1 (mixture of isomers) [Compound 219]
8 | 7.62 | 8.40 | C[C@H]1CN2CCOCC2CN1c1ccc(Nc2cc(-c3ccnc(-n4ccn5c6c(cc5c4=O)CC(C)(C)C6)c3CO)cn(C)c2=O)nc1 (mixture of isomers) [Compound 236]
9 | 7.46 | 8.30 | CCN(CCOC)c1ccc(Nc2cc(-c3ccnc(-n4ccn5c6c(cc5c4=O)CC(C)(C)C6)c3CO)cn(C)c2=O)nc1 [Compound 1, 2-(5-((5-(ethyl (2-methoxyethyl)amino)pyridin-2-yl)amino)-3′-(hydroxymethyl)-1-methyl-6-oxo-1,6-dihydro-[3,4′-bispyridin]-2′-yl)-7,7-dimethyl-7,8-dihydro-2H-cyclopenta[4,5]pyrrolo[1,2-a]pyrazin-1(6H)-one]
10 | 6.65 | 6.47 | CCn1cc(Nc2nc(-c3ccnc(-n4ccn5c6c(cc5c4=O)CC(C)(C)C6)c3CO)cn(C)c2=O)nn1 [Compound 3]
11 | 6.12 | 6.32 | CC(C)n1cc(Nc2nc(-c3ccnc(-n4ccn5c6c(cc5c4=O)CC(C)(C)C6)c3CO)cn(C)c2=O)nn1 [Compound 4]
12 | 8.70 | 8.70 | CC(C)n1cc(Nc2cc(-c3ccnc(-n4ccn5c6c(cc5c4=O)CC(C)(C)C6)c3CO)cn(C)c2=O)nn1 [Compound 6]
13 | > 9.00 | 8.52 | CC(C)n1cc(Nc2cc(-c3ccnc(-n4ccn5c6c(cc5c4=O)CC(C)(C)C6)c3CO)nn(C)c2=O)nn1 [Compound 7]
14 | 7.74 | 8.00 | C[C@H]1COCCN1c1ccc(Nc2cc(-c3ccnc(-n4ccn5c6c(cc5c4=O)CC(C)(C)C6)c3CO)cn(C)c2=O)nc1 [Compound 10]
15 | 6.97 | 6.81 | Cc1c(-c2ccnc(-n3ccn4c5c(cc4c3=O)CC(C)(C)C5)c2CO)cc(Nc2ccc(N3CCN(C4COC4)C[C@@H]3C)cn2)c(=O)n1C [Compound 11]
16 | 6.64 | 7.89 | Cc1c(-c2cc(Nc3ccc(N4CCN(C5COC5)C[C@@H]4C)cn3)c(=O)n(C)c2)ccnc1-n1ccn2c3c(cc2c1=O)CC(C)(C)C3 [Compound 12]
17 | 7.29 | 7.85 | CCn1nc(-c2ccnc(-n3ccn4c5c(cc4c3=O)CC(C)(C)C5)c2CO)cc(Nc2ccc(N3CCN(C4COC4)C[C@@H]3C)cn2)c1=O [Compound 14]
18 | 7.77 | 7.92 | CN1CCn2nc(Nc3cc(-c4ccnc(-n5ccn6c7c(cc6c5=O)CC(C)(C)C7)c4CO)cn(C)c3=O)cc2C1=O [Compound 15]
19 | 8.40 | 8.40 | CC(C)n1cc(Nc2cc(-c3ccnc(-n4ccn5c6c(cc5c4=O)CC(C)(C)C6)c3CO)cn3ncnc23)nn1 [Compound 18]
20 | 8.10 | 7.52 | Cn1cc(Nc2cc(-c3ccnc(-n4ccn5c6c(cc5c4=O)CC(C)(C)C6)c3CO)nn(C)c2=O)nn1 [Compound 29]
21 | 8.05 | 8.10 | Cn1cc(-c2ccnc(-n3ccn4c5c(cc4c3=O)CC(C)(C)C5)c2CO)cc(Nc2cn(CC(F)(F)F)nn2)c1=O [Compound 30]
22 | 7.77 | 7.52 | Cn1nc(-c2ccnc(-n3ccn4c5c(cc4c3=O)CC(C)(C)C5)c2CO)cc(Nc2cn(CCF)nn2)c1=O [Compound 32]
23 | 7.60 | 7.59 | Cn1nc(-c2ccnc(-n3ccn4c5c(cc4c3=O)CC(C)(C)C5)c2CO)cc(Nc2cn(CC(F)(F)F)nn2)c1=O [Compound 33]
